{"source": "patent US20250325565A1", "about": "“ERAVACYCLINE FOR TREATING CANCER” (B. G. NEGEV TECHNOLOGIES AND APPLICATIONS LTD., priority 2022, published 2025)", "type_in_all_cases": "cell-based, human", "key": {"BxPC-3 cells": {"test_system": "BxPC-3 cells", "test": "Annexin V-FITC/PI apoptosis assay by flow cytometry", "details": "72 h", "method": "Cells were cultured in 6-well plates containing different concentrations of eravacycline, gemcitabine, or doxorubicin (medium alone was used as a control) for 72 h. Afterward, cells were collected by trypsinization for flow cytometry analysis. Cells were resuspended in 100 μl binding buffer, then stained with 5 μl propidium iodide (PI) and 5 μl Annexin V-FITC (Annexin V-FITC Apoptosis Detection Kit with PI-BioLegend) at room temperature for 20 min in the dark. Finally, the cells were collected and analyzed by FACS (Sony SP6800 Spectral cell analyzer), and the data was analyzed using SP6800 spectral analyzer software.\nTo examine eravacycline's effect on cell growth inhibition and the mechanism underlying this, the induction of apoptosis activated by eravacycline treatment in BxPC-3 cells was investigated by performing an Annexin V-FITC (V-fluorescein isothiocyanate) apoptosis assay. The effects of the treatment of BxPC-3 cells with increasing concentrations of eravacycline was evaluated after 72 h. A positive control of 1 μM of doxorubicin was evaluated at the same time point."}, "A549 cells": {"test_system": "A549 cells", "test": "XTT cell proliferation assay, A549", "details": "A549, 72 h, 1-50 μM", "method": "Human PDAC (AsPC-1, BxPC-3, Panc-1 scr, Panc-1 p53-R273H knock-out (KO) hTERT-HPNE), breast (MCF-7), lung (A549), and colon (HT-29) cancer cell lines were purchased from the American Type Culture Collection (ATCC). The MCF-7, A549, Panc-1 scr, Panc-1 p53 KO and HT-29 cell lines were grown in Dulbecco's Modified Eagle Medium (DMEM; Biological Industries, Beit HaEmek (BI), Israel), and the BxPC-3 and AsPC-1 cell lines were cultured in Roswell Park Memorial Institute-1640 (RPMI-1640; BI, Israel) medium. All media was supplemented with 10% fetal bovine serum (FBS), 200 μM L-glutamine (BI), and 1% penicillin-streptomycin (BI). Cells were cultured at 37° C. in a 5% CO2 humidified incubator.\nEravacycline dihydrochloride (MedChem Express (MCE)) was dissolved in […] (DDW). Tigecycline (MCE) and omadacycline (MCE) were dissolved in dimethyl sulphoxide (DMSO). All drugs were prepared as 100 mM stock solutions. All cell lines were treated with DMSO as a control (less than 0.1%) or tigecycline, omadacycline, or eravacycline (at the indicated concentrations) for 72 hours. Cell viability and proliferation were determined using the XTT Cell Proliferation Assay Kit (Promega).\nThe XTT Cell Proliferation Assay Kit was used to determine cell viability and proliferation. Cells were seeded in 96-well plates at a density of 4,000 cells per well and allowed to attach overnight in a 5% CO2 incubator at 37° C. […] After shaking the plate gently to distribute the dye in the wells, the absorbance was measured with a spectrophotometer (Bio-RadiMark Microplate Absorbance reader) at a wavelength of 450 nm and a reference wavelength of 655 nm.\nTo evaluate the half maximal inhibitory concentration (IC50) of tetracycline derivatives on five different cell lines (MCF-7, A549, HT-29, BxPC-3, and AsPC-1), the cells were seeded and allowed to attach overnight. […] Inhibition of cell proliferation was determined using the XTT Cell Proliferation Assay Kit. […]"}, "[1]": {"test_system": "cleaved Poly (ADP-ribose) polymerase 1 (C-PARP1)", "test": "Western blot of C-PARP1 in BxPC-3 cells", "details": "BxPC-3, 15 μM, 72 h", "method": "Following the three-day incubation of BxPC-3 cells with medium alone as a control or medium containing different concentrations of eravacycline, gemcitabine, or doxorubicin, BxPC-3 cells were harvested and lysed. BxPC-3 cells were briefly lysed with a buffer containing 20 mM HEPES (pH 7.4), 150 mM NaCl, 1 mM EGTA, 1 mM EDTA, 10% glycerol, 1 mM MgCl2, 1% Triton X-100, and 10 μL of protease phosphatase inhibitors per 1 mL buffer. After incubation on ice for 45 min, the lysates were sonicated for 15 min (40% amplitude without pulses) and centrifuged at 12,000×g at 4° C., and the supernatants were collected. The supernatants were analyzed for protein concentration using the Bradford assay. Absorbance was recorded on a microplate reader at 595 nm (Bio-RadiMark Microplate Absorbance reader).\nTo evaluate the expression of cell apoptosis-related proteins, cleaved Poly (ADP-ribose) polymerase 1 (C-PARP1) was detected using western blot assays. Actin was used as a control. […] Membranes were incubated for 1 h at room temperature with anti-rabbit secondary antibodies (1:1,000, Sigma-Aldrich). β-actin levels were determined using anti-β-actin (1:10,000, Sigma-Aldrich). Immune complexes were detected with a chemiluminescence reagent (Thermo Fisher Scientific, Pierce ECL Plus Substrate), followed by exposure to Kodak X-ray film (Rochester, NY, USA). […]"}}}
{"smiles": "CN(C)[C@@H]1C(O)=C(C(N)=O)C(=O)[C@@]2(O)C(O)=C3C(=O)c4c(O)c(NC(=O)CN5CCCC5)cc(F)c4C[C@H]3C[C@@H]12", "note": "[eravacycline, (4S,4aS,5aR,12aS)-4-(Dimethylamino)-7-fluoro-3,10,12,12a-tetrahydroxy-1,11-dioxo-9-[2-(pyrrolidin-1-yl)acetamido]-1,4,4a,5,5a,6,11,12a-octahydrotetracene-2-carboxamide]", "values": [{"measurement": "increase in the number of apoptotic cells", "setting": "BxPC-3 cells; BxPC-3, 10 μM", "value": "three-fold"}, {"measurement": "apoptosis", "setting": "BxPC-3 cells; BxPC-3, 25 μM", "value": "~70", "unit": "%"}, {"measurement": "effect on cell survival / proliferation (in words)", "setting": "A549 cells", "value": "No significant effect"}, {"measurement": "C-PARP1 expression vs control", "setting": "[1]", "value": "increased significantly"}]}
